Assay results as given in US4501892A, “Pyridyl benzenediols” (The Upjohn Company, priority 1982, dated 1985).

Target: T1, TXA2 synthetase (Homo sapiens, UniProt P24557)
T1 construct: human platelet microsomes (HPM); from tissue; host or cells: human platelet microsomes
T1 sequence (P24557 1-533): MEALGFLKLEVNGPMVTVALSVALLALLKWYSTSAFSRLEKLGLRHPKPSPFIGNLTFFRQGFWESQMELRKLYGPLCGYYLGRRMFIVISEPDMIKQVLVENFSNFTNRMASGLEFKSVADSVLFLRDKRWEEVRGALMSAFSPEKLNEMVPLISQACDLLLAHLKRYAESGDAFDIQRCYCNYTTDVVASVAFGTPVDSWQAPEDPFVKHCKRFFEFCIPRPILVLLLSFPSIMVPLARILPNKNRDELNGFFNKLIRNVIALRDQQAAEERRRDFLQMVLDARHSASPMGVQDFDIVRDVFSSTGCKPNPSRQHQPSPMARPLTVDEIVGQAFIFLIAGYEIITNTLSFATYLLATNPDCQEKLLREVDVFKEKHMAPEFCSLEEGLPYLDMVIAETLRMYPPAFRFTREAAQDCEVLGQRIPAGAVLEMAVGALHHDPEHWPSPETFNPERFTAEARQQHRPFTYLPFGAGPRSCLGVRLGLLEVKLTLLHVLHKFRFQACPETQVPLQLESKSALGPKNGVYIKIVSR
Assay: TXA2 inhibition test: PGH2 mixed with human platelet microsomes (HPM), TXA2 measured by response of superfused rabbit aortic strips
Format: biochemical
Conditions: rabbit aorta response; for effectiveness in inhibiting TXA2 formation (in words): PGH2 + human platelet microsomes
Method: The compounds of the present invention were tested for TXA2 inhibition as follows:
Rabbit aortic strips were superfused in series with Krebs solution. Thromboxane A2 (TXA2) was generated by mixing prostaglandin H2 (PGH2) with human platelet microsomes (HPM).
Potential inhibitors were tested by comparing the response of the rabbit aorta to the amount of TXA2 produced by mixing PGH2 and HPM without the test compound in the reaction medium and then the amount of TXA2 produced when the test compound was added to the HPM 5 minutes before the HPM was mixed with PGH2. […] For a discussion of TXA2 synthetase inhibition testing see, e.g., R. Gorman, supra.

Row | Compound | effectiveness in inhibiting TXA2 formation (in words) | IC50 (test compound added to HPM 5 minutes before mixing with PGH2, read-out: approximate ED50 (inhibition of TXA2 formation) (converted))
1 | 2,3-Dihydro-7-(and 6-)(3-pyridinylmethyl)-1,4-benzodioxin-2-carboxylic acid, sodium salt | most effective | –
2 | COC(=O)C1Oc2ccc(Cc3cccnc3)cc2O1 (racemic) [Example 1, dl-4-(3-Pyridinylmethyl)-1,2-benzenediol, methyl glyoxylate acetal] | most effective | ~369 nM
